Measurements: PubChem BioAssay (NCI)
Where “and” joins values, the source holds several entries; their conditions need not be identical. Equal entries are not always repeated.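 Step 1: Grow cells in 96-well plates. Step 2: Expose to compound for 48 hours at 5 concentrations. Step 3: Interpolate endpoints linearly; if unreached, use highest concentration. GI50 = concentration required for 50% inhibition of growth. TGI is the concentration that stops growth completely.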

Experiments:
Experiment in all cases: NCI anticancer screen, dose series, 48 h
[1] = tested on: HOP-18 NSCLC
[2] = tested on: HOP-62 NSCLC
[3] = tested on: HOP-92 NSCLC
[4] = tested on: KM20L2 colon
[5] = tested on: M14 melanoma
[6] = tested on: M19-MEL melanoma
[7] = tested on: OVCAR-3 ovarian
[8] = tested on: OVCAR-8 ovarian
[9] = tested on: SK-MEL-5 melanoma
[10] = tested on: XF 498 CNS

C=CCN1C(=O)C/C(=C2/CCC(=O)N2CC=C)C1=O
TGI [1]: > 100 µM
TGI [2]: > 100 µM
TGI [3]: > 100 µM
TGI [4]: > 100 µM
TGI [5]: > 100 µM
TGI [6]: > 100 µM
TGI [7]: > 100 µM
TGI [8]: > 100 µM
TGI [9]: > 100 µM

CCCCCCCC(=O)O[C@H]1[C@H]2[C@@H](CC1(C)C)C(=O)[C@]13O[C@H]1C(=O)[C@]1(CO1)[C@]23C
TGI [1]: 9.3 µM and 12.8 µM
GI50 [2]: 19.5 µM
TGI [2]: 38.9 µM and 40.2 µM
GI50 [3]: 2.83 µM
TGI [3]: 6.03 µM and 4.81 µM
GI50 [4]: 2.73 µM
TGI [4]: 11.9 µM and 13.8 µM
TGI [5]: 11.3 µM
GI50 [6]: 2.09 µM
TGI [6]: 4.91 µM and 8.92 µM
GI50 [7]: 2.37 µM
TGI [7]: 4.55 µM and 6.02 µM
GI50 [8]: 8.06 µM
TGI [8]: 24.5 µM and 8.05 µM
GI50 [9]: 15.3 µM
TGI [9]: 29.9 µM and 10.5 µM
GI50 [10]: 2.71 µM
TGI [10]: 5.59 µM and 6.23 µM

Cc1ccc(S(=O)(=O)N/N=C/CN2C(=O)c3ccccc3C2=O)cc1
TGI [2]: > 100 µM
TGI [4]: > 100 µM
TGI [5]: > 100 µM
TGI [6]: > 100 µM
TGI [8]: > 100 µM
TGI [9]: > 100 µM
TGI [10]: > 100 µM

CCc1cc2c(c3[nH]ccc13)[C@@H](C)C[C@H]2C
TGI [1]: 37.2 µM
TGI [3]: 32.6 µM
TGI [5]: 34.4 µM
TGI [6]: 32.2 µM
TGI [7]: 37.1 µM
TGI [8]: 41.1 µM
TGI [9]: 31.9 µM

BrCC[N+]12CCCN1CCC2
TGI [1]: 21.7 µM
TGI [2]: > 70.5 µM
TGI [3]: 13.7 µM
TGI [4]: 42.2 µM
TGI [5]: 24.7 µM
TGI [6]: 34.1 µM
TGI [7]: 30.9 µM
TGI [8]: 39.3 µM
TGI [9]: 34.3 µM

Cc1nc(=O)n2c(c1C(=O)Nc1ccc(Cl)cc1)NCCC2
TGI [2]: > 100 µM
TGI [3]: > 100 µM
TGI [5]: > 100 µM
TGI [6]: > 100 µM
TGI [7]: > 100 µM
TGI [8]: > 100 µM
TGI [10]: > 100 µM

O=C1CCC(=O)C(C(=O)CCC(=O)Nc2ccc(Cl)cc2)C1 (stereo not drawn)
TGI [1]: > 100 µM
TGI [3]: > 100 µM
TGI [4]: > 100 µM
TGI [5]: > 100 µM
TGI [7]: > 100 µM
TGI [8]: > 100 µM
TGI [9]: > 100 µM
TGI [10]: > 100 µM

COc1ccc(CN[C@H]2CCc3cc(OC)c(OC)c(OC)c3-c3ccc(SC)c(=O)cc32)c(OC)c1OC
TGI [1]: > 100 µM
GI50 [2]: 0.375 µM
TGI [2]: > 100 µM
GI50 [3]: 0.0295 µM
TGI [3]: 77.2 µM
GI50 [4]: < 0.01 µM
TGI [4]: 0.0351 µM and 0.0146 µM
GI50 [5]: 0.0102 µM
GI50 [6]: 0.023 µM
TGI [6]: > 100 µM
GI50 [7]: < 0.01 µM
TGI [7]: 0.0618 µM and 0.028 µM
TGI [9]: 0.257 µM
GI50 [10]: 0.0201 µM
TGI [10]: 0.0848 µM and 0.0836 µM

CCC[CH2][Sn]1([CH2]CCC)[O]N=Cc2ccccc2[O]1
GI50 [2]: 1.62 µM
TGI [2]: 3.12 µM
GI50 [3]: 1.22 µM
TGI [3]: 2.49 µM
GI50 [4]: 1.26 µM
TGI [4]: 2.55 µM
GI50 [5]: 0.78 µM
TGI [5]: 2.09 µM
GI50 [6]: 0.815 µM
TGI [6]: 2.08 µM
GI50 [7]: 0.402 µM
TGI [7]: 1.57 µM
GI50 [8]: 0.89 µM
TGI [8]: 2.12 µM
GI50 [9]: 1.46 µM
TGI [9]: 2.83 µM
GI50 [10]: 1.39 µM
TGI [10]: 2.72 µM

COC(=O)C([O][Ge]([CH3])([CH3])[CH3])c1ccccc1 (stereo not drawn)
GI50 [1]: > 100 µM
TGI [1]: > 100 µM
GI50 [2]: > 100 µM
TGI [2]: > 100 µM
GI50 [3]: > 100 µM
TGI [3]: > 100 µM
GI50 [4]: > 100 µM
TGI [4]: > 100 µM
GI50 [5]: > 100 µM
TGI [5]: > 100 µM
GI50 [6]: > 100 µM
TGI [6]: > 100 µM
GI50 [7]: > 100 µM
TGI [7]: > 100 µM
GI50 [8]: > 100 µM
TGI [8]: > 100 µM
GI50 [9]: > 100 µM
TGI [9]: > 100 µM

CC1(C)CC(=O)C=C(NC(=O)c2ccccc2)C1
TGI [2]: > 100 µM
TGI [3]: > 100 µM
TGI [5]: > 100 µM
TGI [6]: > 100 µM
TGI [7]: > 100 µM
TGI [8]: > 100 µM
TGI [9]: > 100 µM
TGI [10]: > 100 µM

COc1ccc2nc(NC(=O)C(=O)C(C#N)c3ccc(CC#N)cc3)sc2c1 (stereo not drawn)
TGI [1]: > 100 µM
TGI [2]: > 100 µM
TGI [3]: > 100 µM
TGI [4]: > 100 µM
TGI [5]: > 100 µM
TGI [6]: > 100 µM
TGI [7]: > 100 µM
TGI [8]: > 100 µM
TGI [9]: > 100 µM

CCOc1c(Cc2ccccc2)c(=O)n2c3ccccc3n3c(=O)n(C)c(=O)c1c23
TGI [1]: > 100 µM
TGI [2]: > 100 µM
TGI [3]: > 100 µM
TGI [5]: > 100 µM
TGI [6]: > 100 µM
TGI [7]: > 100 µM
TGI [8]: > 100 µM
TGI [9]: > 100 µM
TGI [10]: > 100 µM

O=[P+](O)c1cc2c3ccccc3ccc2c2ccccc12
TGI [1]: > 100 µM
TGI [2]: > 100 µM
TGI [4]: > 100 µM
TGI [5]: > 100 µM
TGI [6]: > 100 µM
TGI [7]: > 100 µM
TGI [8]: > 100 µM
TGI [9]: > 100 µM
TGI [10]: > 100 µM

Cc1cccc(Cc2cnc(NC(=O)/C=C/c3ccco3)s2)c1
GI50 [2]: 0.0535 µM
TGI [2]: > 100 µM
GI50 [3]: 8.5 µM
TGI [3]: > 100 µM
GI50 [5]: 0.031 µM
TGI [5]: > 100 µM
GI50 [7]: 0.0312 µM
TGI [7]: 0.0914 µM
GI50 [8]: 0.0535 µM
TGI [8]: > 100 µM
GI50 [9]: 0.0354 µM
TGI [9]: 3.36 µM
